By ED50 is commonly meant the dose at which the effect has come halfway, by size or by number of responders.

The values that follow come from US5095018A, “3-benzyl-1,2,4-triazolo[4,3-α] pyrazines” (Burroughs Wellcome Co., priority 1989, dated 1992).

Where two headings read alike, the source gives them in different places.

This assay is described as follows: standard maximal electroshock test (MES), anticonvulsant activity. Format: in vivo. Conditions: HCl salt. On the procedure:
The anticonvulsant activity of certain compounds of the present invention were determined by a standard maximal electroshock test (MES); that described by L. A. Woodbury and V. D. Davenport, Arch. Int. Pharmacodyn, 1952, 92 95.
On the technique in general: The maximal electroshock test induces tonic seizures with an electrical stimulus.

Where [1] appears, read: ip, intraperitoneal (I.P.), read-out: ED50 I.P.
Setting [2] is: oral (P.O.), read-out: ED50 P.O.

For the compound `CNc1nccn2c(Cc3ccccc3F)nnc12` [Example 1, 3-(2-fluorobenzyl)-8-(methylamino)-1,2,4-triazolo[4,3-a]pyrazine], the ED50 runs as follows: under setting [1], 4.1 mg/kg; under setting [2], 8.3 mg/kg. For `Nc1nccn2c(Cc3ccccc3F)nnc12` [Example 2, 8-amino-3-(2-fluorobenzyl)-1,2,4-triazolo[4,3-a]pyrazine], the ED50 worked out at 9.4 mg/kg under setting [1] and 8 mg/kg under setting [2]. For `CNc1nccn2c(Cc3ccccc3)nnc12` [Example 3, 3-Benzyl-8-(methylamino)-1,2,4-triazolo[4,3-a]pyrazine], the ED50 was found to be 6.2 mg/kg under setting [1] and 15.6 mg/kg under setting [2]. Taken in the same sequence, the figures for `CNc1nccn2c(Cc3cccc(F)c3)nnc12` [Example 4, 3-(3-fluorobenzyl)-8-(methylamino)-1,2,4-triazolo[4,3-a]pyrazine] were 4.1 mg/kg and 20.4 mg/kg. On to `CNc1nccn2c(Cc3ccc(F)cc3)nnc12` [Example 5, 3-(4-fluorobenzyl)-8-(methylamino)-1,2,4-triazolo[4,3-a]pyrazine], for which the ED50 under setting [1] came to 25 mg/kg. On to `CNc1nccn2c(Cc3cc(F)ccc3F)nnc12` [Example 6, 3-(2,5-difluorobenzyl)-8-(methylamino)-1,2,4-triazolo[4,3-a]pyrazine], for which the ED50 under setting [1] is 4 mg/kg and the ED50 under setting [2] was found to be 10.2 mg/kg. Take `Nc1nccn2c(Cc3cc(F)ccc3F)nnc12` [Example 7, 8-amino-3-(2,5-difluorobenzyl)-1,2,4-triazolo[4,3-a]pyrazine]: the ED50 under setting [1] was determined as 7.1 mg/kg and the ED50 under setting [2] is 20.4 mg/kg. Regarding `CNc1nccn2c(Cc3c(F)cccc3F)nnc12` [Example 8, 3-(2,6-difluorobenzyl)-8-(methylamino)-1,2,4-triazolo[4,3-a]pyrazine], the ED50 is 2 mg/kg under setting [1] and 3 mg/kg under setting [2]. As to `Nc1nccn2c(Cc3c(F)cccc3F)nnc12` [Example 9, 8-amino-3-(2,6-difluorobenzyl)-1,2,4-triazolo[4,3-a]pyrazine], the ED50 under setting [1] is 3.1 mg/kg and the 50% effective dose (ED50) under setting [2] is 7.1 mg/kg.

As to `Fc1cccc(F)c1Cc1nnc2c(NC3CC3)nccn12` [Example 10, 8-(cyclopropylamino)-3-(2,6-difluorobenzyl)-1,2,4-triazolo[4,3-a]pyrazine], the ED50 under setting [1] amounted to 7.2 mg/kg. Take `Fc1ccccc1Cc1nnc2c(NC3CC3)nccn12` [Example 11, 8-(cyclopropylamino)-3-(2-fluorobenzyl)-1,2,4-triazolo[4,3-a]pyrazine]: the ED50 under setting [1] stood at 9.4 mg/kg.
